The values that follow come from patent EP0519877B1, “3-Acylamino-2-pyrrolidinones as enhancers of the processes of learning and memory and pharmaceutical compositions containing same” (Sigma-Tau Industrie Farmaceutiche Riunite S.p.A., priority 1991, dated 1992).

This assay relates to Male CD1 mice. Briefly: Passive avoidance test following ECS-induced amnesia. As to conditions: i.p., 30 minutes before training, retention assessed 24 hours later. In kind it is in vivo. The method, then:
In order to assess the antiamnesic activity the passive avoidance test in mice was used.
Male CD1 mice (Charles River) weighting 25-26 g fed on a normal diet were used for the ECS-induced amnesia test.
The compounds were administered i.p.at doses equimolar to 9 and 0.9 mg/kg […]. The compounds were dissolved in saline.
The apparatus for passive avoidance conditioning was a black plastic chamber (42 x 42 cm, height 40 cm) provided with a floor constructed of metal rods that could be electrified. From the front wall extended a white runway, 30 cm long and 10 cm wide provided with side walls 12 cm high, which led into the box through a guillotine door.
30 minutes following treatment with the compounds, the animals were placed on the runway. After one minute of adaptation, the door was raised and the time employed by the animal to enter the darkened box with all four feet was recorded.
Upon entry, the guillotine door was lowered and three seconds thereafter the rods were electrified, 0.24 mA for 2 seconds.
The mouse was then removed from the chamber and immediately administered an electroshock delivered through spring clips attached to the ears (square wave, intensity 20 mA, amplitude 0.6 msec, duration 0.5 s, frequency 50 Hz).
Immediately thereafter the animal was placed in the housing cage. Retention was assessed 24 hours later by placing the animal on the runway and again evaluating the latency in entering the chamber, using an end-point of 300 seconds (Bammer, loc.cit.).
In each experiment, two groups of animals in addition to the treated ones were used, that were defined as follows: • (1) ceiling control animals (treated with placebo and not subjected to amnesia treatment) to ensure that these animals not treated with the amnesia agent remembered the task; • (2) base-line control animals (treated with placebo and subjected to amnesia treatment) to ensure that ECS produced amnesia in the animals not treated with the compounds of the present invention.
The sum ΣAij encompasses all the possible pairs obtained by combining each term Xi with each term Xj.

[1] abbreviates: dose equimolar to 0.9 mg/kg PIRACETAM
Setting [2] is: dose equimolar to 9 mg/kg PIRACETAM

In the case of `N[C@H]1CCNC1=O` [ST 802, (S)-3-amino-2-pyrrolidinone, reference compound], under setting [1], the “AR (percentage of amnesia reversal)” value is given as 24%.

On to `O=CN[C@H]1CCNC1=O` [ST 879, (S)-3-(formylamino)-2-pyrrolidinone], for which the “AR (percentage of amnesia reversal)” value by setting is: under setting [1], 53%; under setting [2], 9%. On the same counts, the results for `O=C(N[C@H]1CCNC1=O)c1cccc(C(F)(F)F)c1` [ST 835, (S)-3-(3-trifluoromethylbenzoylamino)-2-pyrrolidinone] are 51% and 58%.
